CC1=NNC(=O)N(/N=C/c2cccnc2)C1
solubility (mole fraction)
Conditions	278.15 K	283.15 K	288.15 K	293.15 K	298.15 K	303.15 K	308.15 K	313.15 K	318.15 K
in 1,4-dioxane	–	–	0.000462	0.00054	0.000629	0.000728	0.000842	0.000964	0.0011
in DMF	0.0031	0.00347	0.00398	0.00451	0.00515	0.00582	0.00656	0.00738	0.00832
in DMSO	–	–	–	0.00762	0.00862	0.00985	0.0112	0.0126	0.0144
in NMP	0.00163	0.00189	0.0022	0.00255	0.00295	0.00338	0.00389	0.00444	0.00506
in isopropanol	0.000198	0.000232	0.00028	0.000331	0.000391	0.000461	0.00054	0.000625	0.000729
in n-butanol	0.000159	0.00019	0.000229	0.000277	0.000332	0.000389	0.00046	0.000537	0.000635

— BigSolDB 2.1
